What was measured:
[1] = system: production of various cytokines; experiment: In vitro pharmacological activity profile compared with thalidomide; assay type: cell-based; conditions: in vitro studies
Text: The pharmacological properties of 3-(4-amino-1 -oxo-1,3-dihydro-isoindol-2-yl)-piperidine-2,6-dione, including activity comparisons with thalidomide, have been characterized in in vitro studies. Studies examined the effects of 3-(4-amino-1-oxo-1,3-dihydro-isoindol-2-yl)-piperidine-2,6-dione or thalidomide on the production of various cytokines.
The pharmacological effects of 3-(4-amino-1-oxo-1,3-dihydro-isoindol-2-yl)-piperidine-2,6-dione derive from its action as an inhibitor of cellular response to receptor-initiated trophic signals (e.g., IGF-1, VEGF, […]), and other activities. As a result, 3-(4-amino-1-oxo-1,3-dihydro-isoindol-2-yl)-piperidine-2,6-dione suppresses the generation of inflammatory cytokines, down-regulates adhesion molecules and apoptosis inhibitory proteins (e.g., cFLIP, clAP), promotes sensitivity to death-receptor initiated programmed cell death, and suppresses angiogenic response.

patients with PH [2] = experiment: Clinical Study 2 in PH patients, 12 weeks, placebo controlled; assay type: in vivo, human
Procedure: In one embodiment of the invention, 3-(4-amino-1-oxo-1,3-dihydro-isoindol-2-yl)-piperidine-2,6-dione is administered in a single or divided daily doses in an amount of from about 1 to about 100 mg/day. In another embodiment of the invention, 3-(4-amino-1-oxo-1,3-dihydro-isoindol-2-yl)-piperidine-2,6-dione is administered from about 1 to about 20 mg/day individually. The compound is administered to patients with PH for 12 weeks, who are subsequently evaluated for a decline in walk distance, dyspnea score, functional class, pulmonary hemodynamic response. The first study enrolls 32 patients with PH. Patients are all in modified New York Heart Association functional class III at the onset of the study. Patents are maximally treated and are stable on conventional therapy, including calcium channel antagonists and diuretics. Two thirds of patients receive 5 mg of 3-(4-amino-1-oxo-1,3-dihydro-isoindol-2-yl)-piperidine-2,6-dione for four weeks followed by 10 mg of the compound for eight weeks. One third of patients receive placebo. The primary efficacy endpoint is a 6-minute walk distance. Patients receiving the compound of the invention walk an average of 70 meters farther after 12 weeks while placebo patients have a decline in walk distance. In addition, the treated patients have improvements in dyspnea score and functional class compared with placebo patients. Pulmonary hemodynamic measurements reveal decreases in pulmonary arterial pressure and pulmonary vascular resistance, and increase in cardiac output after 12 weeks of the treatment, compared with worsening of pulmonary hemodynamics in placebo patients. All these changes in treated patients are highly significant compared with placebo.

patients with PH [3] = experiment: Expanded clinical study in PH patients, WHO functional class III or IV, 16 weeks; assay type: in vivo, human
Procedure: On the basis of the results of the above study 2, the clinical study is expanded with additional 213 PH patients for at least 16 weeks. The study is conducted with patients with PH, WHO functional class III or IV. Two hundred thirteen patients are randomized to receive either 5 mg bid or 10 mg bid of 3-(4-amino-1-oxo-1,3-dihydro-isoindol-2-yl)-piperidine-2,6-dione or placebo in a 1:1:1 ratio. The primary endpoint, a 6-minute walk distance, is evaluated at 16 weeks. The treated patients walk 36.4 meters further at 16 weeks compared to a 7.8 meter reduction in walk distance in the placebo group, for a treatment effect of 44.2 meters. Clinical worsening, defined by death, premature withdrawal from study, hospitalization for worsening of PH or institution of epoprostenol, occur in 37% of placebo-treated patients, compared with 11% of the patients treated with the compound of the invention.

[4] = cited from earlier work

Compound | potency relative to thalidomide [1] | dyspnea score and functional class (patients with PH [2]; 12 weeks, compared with placebo patients) | cardiac output (patients with PH [2]; after 12 weeks of treatment) | pulmonary arterial pressure and pulmonary vascular resistance (patients with PH [2]; after 12 weeks of treatment) | 6-minute walk distance, average increase (patients with PH [2]; after 12 weeks, 5 mg for four weeks then 10 mg for eight weeks) [meters] | treatment effect on 6-minute walk distance versus placebo (patients with PH [3]; at 16 weeks) [meters] | 6-minute walk distance, increase (patients with PH [3]; at 16 weeks, 5 mg bid or 10 mg bid) [meters] | clinical worsening (death, premature withdrawal, hospitalization for worsening of PH or institution of epoprostenol), share of patients (patients with PH [3]; treated patients) [%] | functional class (patients with PH [3]; treated versus placebo patients) | stability among forms in aqueous solvent systems [4]
Nc1cccc2c1CN(C1CCC(=O)NC1=O)C2=O (stereo not shown) [3-(4-amino-1-oxo-1,3-dihydro-isoindol-2-yl)-piperidine-2,6-dione] | 50 to 2,000 times | improvements | increase | decreases | 70 | 44.2 | 36.4 | 11 | improved significantly more | 
Nc1cccc2c1CN(C1CCC(=O)NC1=O)C2=O (stereo not shown) [Form E, 3-(4-amino-1-oxo-1,3 dihydro-isoindol-2-yl)-piperidene-2,6-dione] |  |  |  |  |  |  |  |  |  | most stable form

— patent publication US20050239842A1, “Methods of using and compositions comprising immunomodulatory compounds for the treatment and management of pulmonary hypertension” (priority 2004, published 2005)
